What was measured:
[1] = biological target: nAChRs (L. migratoria manilensis α1 and R. norvegicus β2) (Locusta migratoria manilensis, UniProt P12390+W6ECM5); test: Two-electrode voltage-clamp agonist dose-response on nAChRs expressed in Xenopus oocytes, with or without Na+/K+ ATPase; format: cell-based; conditions: for effect of Na^+/K^+ ATPase co-expression on agonist sensitivity: co-expression of Na^+/K^+ ATPase vs nAChRs alone, increase not removed by ouabain
Source text: To characterize the influence of Na^+/K^+ ATPase on nAChR function, nAChRs were expressed with or without Na^+/K^+ ATPase in Xenopus oocytes.
(B) Does-response curves for nicotine. (C) Does-response curves for imidacloprid. The curves from the oocytes expressing nAChRs (L. migratoria manilensis subunit α1 and R. norvegicus subunit β2) were indicated by open squares. The curves from the oocytes co-expressing nAChRs and Na^+/K^+ ATPase (subunit α1 and β1) were indicated by solid triangles (without ouabain) and open triangles (with ouabain).
(§1) The L. migratoria manilensis subunit α1 (KF813096) and subunit β1 (KF813099) of Na^+/k^+ ATPase, and subunit α1 (KF873578) of nAhCRs were subcloned into the expression vector pGH19 at sites of BamHIand XbaI, BamHI and ApaI, and EcoRI and XbaI, respectively. Rattus norvegicus β2 subunit (L31622) was also subcloned into the expression vector pGH19 as described previously. The cRNAs of all subunits were generated as described previously. Xenopus oocyte preparation and cRNA injection were performed as described previously. Electrophysiological recordings were made using a two-electrode voltage clamp (Multiclamp 700B Amplifier; Axon Instruments, Foster, CA, USA) as previously described. The measurement of the current of Na^+/K^+ ATPase was performed as described.
Differences in responses (currents), Imax and EC50 values were analyzed by one-way ANOVA with at least three repeats (different batches of oocytes from different frogs). Multiple comparisons between the groups were performed using S-N-K method. The level of significance for results was set at p < 0.05.

[2] = tested on: Na^+/K^+ ATPase (α1 and β1); test: Pump-mediated steady-state current of Na+/K+ ATPase in Xenopus oocytes (two-electrode voltage clamp); format: cell-based, Locusta migratoria manilensis; conditions: for effect on Na^+/K^+ ATPase steady-state current directly: oocytes expressing Na^+/K^+ ATPase without nAChRs, 1 μM nicotine and 1 μM DHβE
Experimental: as §1

Sequence of nAChRs (L. migratoria manilensis α1 and R. norvegicus β2) (W6ECM5 21-570): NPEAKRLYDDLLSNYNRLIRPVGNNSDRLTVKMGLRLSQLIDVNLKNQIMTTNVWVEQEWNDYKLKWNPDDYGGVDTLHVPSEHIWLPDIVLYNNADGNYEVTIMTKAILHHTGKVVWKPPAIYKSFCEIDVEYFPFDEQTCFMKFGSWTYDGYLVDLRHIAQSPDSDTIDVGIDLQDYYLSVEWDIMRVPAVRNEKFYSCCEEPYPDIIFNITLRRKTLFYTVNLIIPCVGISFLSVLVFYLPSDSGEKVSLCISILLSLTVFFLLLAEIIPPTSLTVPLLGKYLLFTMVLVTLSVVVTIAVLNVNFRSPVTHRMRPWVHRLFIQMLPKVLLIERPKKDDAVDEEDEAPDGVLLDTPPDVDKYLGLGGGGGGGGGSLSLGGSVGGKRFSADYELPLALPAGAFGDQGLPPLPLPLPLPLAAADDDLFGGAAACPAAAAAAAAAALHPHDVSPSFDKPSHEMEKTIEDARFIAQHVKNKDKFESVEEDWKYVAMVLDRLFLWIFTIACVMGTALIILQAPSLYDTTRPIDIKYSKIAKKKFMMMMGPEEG
Sequence of nAChRs (L. migratoria manilensis α1 and R. norvegicus β2) (P12390 25-500): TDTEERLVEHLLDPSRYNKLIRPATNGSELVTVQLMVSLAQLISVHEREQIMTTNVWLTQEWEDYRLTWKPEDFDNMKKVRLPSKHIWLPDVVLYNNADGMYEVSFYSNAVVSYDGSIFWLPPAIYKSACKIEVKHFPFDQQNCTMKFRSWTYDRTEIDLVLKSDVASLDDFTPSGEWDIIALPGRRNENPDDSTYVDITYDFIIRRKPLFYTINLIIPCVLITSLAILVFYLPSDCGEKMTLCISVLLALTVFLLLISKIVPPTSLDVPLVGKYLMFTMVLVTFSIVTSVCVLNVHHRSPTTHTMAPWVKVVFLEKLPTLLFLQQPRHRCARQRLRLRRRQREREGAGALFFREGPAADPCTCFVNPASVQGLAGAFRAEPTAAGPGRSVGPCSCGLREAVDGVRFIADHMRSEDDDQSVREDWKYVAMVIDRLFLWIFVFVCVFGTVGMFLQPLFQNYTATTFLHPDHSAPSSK

CC(=O)OCC[N+](C)(C)C [ACh, acetylcholine]
EC50 ([1]; oocytes only expressing nAChRs): 63.2 ± 5.14 µM

CO[C@H]1CC=C2CCN3CCC4=C(CC(=O)OC4)[C@]23C1 [DHβE, dihydro-β-erythroidine]
effect on Na^+/K^+ ATPase steady-state current directly [2]: no effects

O=[N+]([O-])NC1=NCCN1Cc1ccc(Cl)nc1 [imidacloprid]
effect of Na^+/K^+ ATPase co-expression on agonist sensitivity [1]: increase agonist sensitivities

CN1CCC[C@H]1c1cccnc1 [nicotine]
steady state current of Na^+/K^+ ATPase ([2]; oocytes co-expressing Na^+/K^+ ATPase and nAChRs, 1 μM nicotine, with 1 μM DHβE to suppress nAChR currents): increased significantly
effect on Na^+/K^+ ATPase steady-state current directly [2]: no effects
effect of Na^+/K^+ ATPase co-expression on agonist sensitivity [1]: increase agonist sensitivities
